US20130096067A1, “DROSOPHILA TUMOR STEM CELL MODEL AND USES THEREOF” (priority 2011, published 2013)

Tested on: Raf-1^gof intestinal tumors
Details: for Log2 (fold) (luciferase activity, log2 of the fold difference relative to DMSO controls) / Fold (luciferase activity, fold difference relative to DMSO controls): screen of 480 ICCB compounds in vials, compounds fed to flies with one-day old Raf-1^gof tumors, esg-Gal4 luciferase; for Log2 (fold) (luciferase activity, log2 of the fold difference relative to DMSO controls) / Fold (luciferase activity, fold difference relative to DMSO controls) / Log2 (fold) of luciferase activity relative to DMSO controls / Fold (luciferase activity relative to DMSO controls): assessed three days later; for Fold (luciferase activity, fold difference relative to DMSO controls) / Fold (luciferase activity relative to DMSO controls): averaged from multiple wells; for Log2 (fold) of luciferase activity relative to DMSO controls / Fold (luciferase activity relative to DMSO controls): ICCB compounds fed in vials to flies with one-day old Raf-1^gof tumors
Wherever Fold (luciferase activity relative to DMSO controls) is given: test concentration or dose not given here.
Wherever Fold (luciferase activity, fold difference relative to DMSO controls) is given: test concentration or dose not given here.
Wherever Log2 (fold) (luciferase activity, log2 of the fold difference relative to DMSO controls) is given: test concentration or dose not given here.
Wherever Log2 (fold) of luciferase activity relative to DMSO controls is given: test concentration or dose not given here.

SMILES: O=C1C(SCCO)=C(SCCO)C(=O)c2ccccc21 [NSC-95397]
- Log2 (fold) (luciferase activity, log2 of the fold difference relative to DMSO controls): −0.495
- Fold (luciferase activity, fold difference relative to DMSO controls): 0.709

SMILES: CCC(C)[C@H](NS(=O)(=O)c1cccc2ccccc12)C(=O)N[C@H](C=O)Cc1c[nH]c2ccccc12 (stereo partly drawn) [NapSul-Ile-Trp-CHO]
- Log2 (fold) (luciferase activity, log2 of the fold difference relative to DMSO controls): −0.554
- Fold (luciferase activity, fold difference relative to DMSO controls): 0.681

SMILES: CS(=O)(=O)Nc1ccc([N+](=O)[O-])cc1Oc1ccccc1 [Nimesulide]
- Log2 (fold) (luciferase activity, log2 of the fold difference relative to DMSO controls): −0.264
- Fold (luciferase activity, fold difference relative to DMSO controls): 0.833

SMILES: CCCCCCCCCCCCCCCCCCc1ccc(C(=O)/C=C/C(=O)O)cc1 [OBAA]
- Log2 (fold) of luciferase activity relative to DMSO controls: −0.169
- Fold (luciferase activity relative to DMSO controls): 0.890 fold

SMILES: CCCCCCCCCCCCCCCCOC[C@H](COP(=O)([O-])OCC[N+](C)(C)C)OC(C)=O [PAF C16]
- Log2 (fold) of luciferase activity relative to DMSO controls: −0.190
- Fold (luciferase activity relative to DMSO controls): 0.876 fold

SMILES: CCCCCCCC/C=C\CCCCCCCCOC[C@H](COP(=O)([O-])OCC[N+](C)(C)C)OC(C)=O [PAF C18:1]
- Log2 (fold) (luciferase activity, log2 of the fold difference relative to DMSO controls): −0.420
- Fold (luciferase activity, fold difference relative to DMSO controls): 0.747

SMILES: CCCCCCCCCCCCCCCCCCOC[C@H](COP(=O)([O-])OCC[N+](C)(C)C)OC(C)=O [PAF C18]
- Log2 (fold) (luciferase activity, log2 of the fold difference relative to DMSO controls): −0.455
- Fold (luciferase activity, fold difference relative to DMSO controls): 0.729

SMILES: CCCCCCCCCCCCCCCC(=O)NCCO [PALMITYLETHANOLAMIDE]
- Log2 (fold) (luciferase activity, log2 of the fold difference relative to DMSO controls): −0.486
- Fold (luciferase activity, fold difference relative to DMSO controls): 0.714

SMILES: CC(C)(O)[C@H]1O[C@H]2CC[C@@]3(C)[C@@](O)(CC[C@H]4Cc5c([nH]c6ccccc56)[C@@]43C)C2=CC1=O [PAXILLINE]
- Log2 (fold) of luciferase activity relative to DMSO controls: −0.078
- Fold (luciferase activity relative to DMSO controls): 0.948 fold

SMILES: COC(=O)C1=C(C)NC(C)=C(C(=O)OCCSc2ccccc2)C1C (centres unmarked) [PCA 4248]
- Log2 (fold) of luciferase activity relative to DMSO controls: −0.180
- Fold (luciferase activity relative to DMSO controls): 0.883 fold

SMILES: COc1cccc(-c2cc(=O)c3ccccc3o2)c1N [PD 98059]
- Log2 (fold) (luciferase activity, log2 of the fold difference relative to DMSO controls): −0.338
- Fold (luciferase activity, fold difference relative to DMSO controls): 0.791

SMILES: Cc1ccc(N(CC2=NCCN2)c2cccc(O)c2)cc1 [PHENTOLAMINE]
- Log2 (fold) (luciferase activity, log2 of the fold difference relative to DMSO controls): −0.321
- Fold (luciferase activity, fold difference relative to DMSO controls): 0.800

SMILES: O=C1NC(=O)C(c2ccccc2)(c2ccccc2)N1 [PHENYTOIN]
- Log2 (fold) (luciferase activity, log2 of the fold difference relative to DMSO controls): −0.300
- Fold (luciferase activity, fold difference relative to DMSO controls): 0.812

SMILES: CCCCCCCCCCCCCCCC(=O)OCC(COP(=O)(O)O)OC(=O)CCCCCCCCCCCCCCC (centres unmarked) [PHOSPHATIDIC ACID, DIPALMITOYL]
- Log2 (fold) (luciferase activity, log2 of the fold difference relative to DMSO controls): −0.288
- Fold (luciferase activity, fold difference relative to DMSO controls): 0.819

SMILES: O=c1[nH]c2ccccc2n1C1CCN(CCCC(c2ccc(F)cc2)c2ccc(F)cc2)CC1 [PIMOZIDE]
- Log2 (fold) (luciferase activity, log2 of the fold difference relative to DMSO controls): −0.425
- Fold (luciferase activity, fold difference relative to DMSO controls): 0.745

SMILES: Cc1ccc(-c2nn(C(C)(C)C)c3ncnc(N)c23)cc1 [PP1]
- Log2 (fold) of luciferase activity relative to DMSO controls: 0.503
- Fold (luciferase activity relative to DMSO controls): 1.418 fold

SMILES: CC(C)(C)n1nc(-c2ccc(Cl)cc2)c2c(N)ncnc21 [PP2]
- Log2 (fold) of luciferase activity relative to DMSO controls: 0.062
- Fold (luciferase activity relative to DMSO controls): 1.044 fold

SMILES: O=C1C2CCN(CC2)C1(CO)CO [PRIMA-1]
- Log2 (fold) of luciferase activity relative to DMSO controls: −0.110
- Fold (luciferase activity relative to DMSO controls): 0.926 fold

SMILES: CCN(CC)CCNC(=O)c1ccc(N)cc1 [PROCAINAMIDE]
- Log2 (fold) (luciferase activity, log2 of the fold difference relative to DMSO controls): −0.346
- Fold (luciferase activity, fold difference relative to DMSO controls): 0.787

SMILES: CCCNCC(O)COc1ccccc1C(=O)CCc1ccccc1 (centres unmarked) [PROPAFENONE]
- Log2 (fold) (luciferase activity, log2 of the fold difference relative to DMSO controls): −0.214
- Fold (luciferase activity, fold difference relative to DMSO controls): 0.862

SMILES: CCCCC[C@H](O)/C=C/[C@H]1C=CC(=O)[C@@H]1CCCCCCC(=O)O [PROSTAGLANDIN A1]
- Log2 (fold) (luciferase activity, log2 of the fold difference relative to DMSO controls): −0.522
- Fold (luciferase activity, fold difference relative to DMSO controls): 0.696

SMILES: CCCCC[C@H](O)/C=C/[C@H]1C=CC(=O)[C@@H]1C/C=C\CCCC(=O)O [PROSTAGLANDIN A2]
- Log2 (fold) (luciferase activity, log2 of the fold difference relative to DMSO controls): −0.295
- Fold (luciferase activity, fold difference relative to DMSO controls): 0.815

SMILES: CCCCC[C@H](O)/C=C/C1=C(CCCCCCC(=O)O)C(=O)CC1 [PROSTAGLANDIN B1]
- Log2 (fold) (luciferase activity, log2 of the fold difference relative to DMSO controls): −0.408
- Fold (luciferase activity, fold difference relative to DMSO controls): 0.753

SMILES: CCCCC[C@H](O)/C=C/C1=C(C/C=C\CCCC(=O)O)C(=O)CC1 [PROSTAGLANDIN B2]
- Log2 (fold) (luciferase activity, log2 of the fold difference relative to DMSO controls): −0.330
- Fold (luciferase activity, fold difference relative to DMSO controls): 0.796

SMILES: CCCCC[C@H](O)/C=C/[C@H]1C(=O)C[C@H](O)[C@@H]1C/C=C\CCCC(=O)O [PROSTAGLANDIN D2]
- Log2 (fold) (luciferase activity, log2 of the fold difference relative to DMSO controls): −0.413
- Fold (luciferase activity, fold difference relative to DMSO controls): 0.751

SMILES: CCCCC[C@H](O)/C=C/[C@H]1[C@H](O)CC(=O)[C@@H]1CCCCCCC(=O)O [PROSTAGLANDIN E1]
- Log2 (fold) (luciferase activity, log2 of the fold difference relative to DMSO controls): −0.561
- Fold (luciferase activity, fold difference relative to DMSO controls): 0.678

SMILES: CCCCC[C@H](O)/C=C/[C@H]1[C@H](O)CC(=O)[C@@H]1C/C=C\CCCC(=O)O [PROSTAGLANDIN E2]
- Log2 (fold) (luciferase activity, log2 of the fold difference relative to DMSO controls): −0.223
- Fold (luciferase activity, fold difference relative to DMSO controls): 0.857

SMILES: CCCCC[C@H](O)/C=C/[C@@H]1[C@@H](CCCCCCC(=O)O)[C@@H](O)C[C@H]1O [PROSTAGLANDIN F1a]
- Log2 (fold) of luciferase activity relative to DMSO controls: −0.208
- Fold (luciferase activity relative to DMSO controls): 0.866 fold

SMILES: CCCCC[C@H](O)/C=C/[C@@H]1[C@@H](C/C=C\CCCC(=O)O)[C@@H](O)C[C@H]1O [PROSTAGLANDIN F2a]
- Log2 (fold) (luciferase activity, log2 of the fold difference relative to DMSO controls): −0.450
- Fold (luciferase activity, fold difference relative to DMSO controls): 0.732

SMILES: CCCCC[C@H](O)/C=C/[C@@H]1[C@H]2C/C(=C/CCCC(=O)[O-])O[C@H]2C[C@H]1O.[Na+] [PROSTAGLANDIN I2 Na]
- Log2 (fold) (luciferase activity, log2 of the fold difference relative to DMSO controls): −0.244
- Fold (luciferase activity, fold difference relative to DMSO controls): 0.844

SMILES: CC(COc1ccccc1)N(CCCl)Cc1ccccc1 (centres unmarked) [Phenoxybenzamine]
- Log2 (fold) (luciferase activity, log2 of the fold difference relative to DMSO controls): −0.600
- Fold (luciferase activity, fold difference relative to DMSO controls): 0.660

SMILES: Oc1cc(O)cc(/C=C/c2ccc(O)c(O)c2)c1 [Piceatannol, reference compound]
- Fold (Table 3 summary of hits, Screen ICCB, luciferase relative to DMSO, fed three consecutive days in vials): 0.493 fold
- Log2 (fold) (luciferase activity, log2 of the fold difference relative to DMSO controls): −1.020
- Fold (luciferase activity, fold difference relative to DMSO controls): 0.493

SMILES: CC(=O)[C@H]1[C@H](C#N)C[C@H]2[C@@H]3CC=C4C[C@@H](O)CC[C@]4(C)[C@H]3CC[C@@]21C [Pregnenolone 16alpha carbonitrile]
- Log2 (fold) (luciferase activity, log2 of the fold difference relative to DMSO controls): −0.492
- Fold (luciferase activity, fold difference relative to DMSO controls): 0.711

SMILES: C=C[C@H]1C[N@@]2CC[C@H]1C[C@@H]2[C@@H](O)c1ccnc2ccc(OC)cc12 [QUINIDINE]
- Log2 (fold) (luciferase activity, log2 of the fold difference relative to DMSO controls): −0.351
- Fold (luciferase activity, fold difference relative to DMSO controls): 0.784

SMILES: C=C[C@H]1C[N@@]2CC[C@H]1C[C@H]2[C@H](O)c1ccnc2ccc(OC)cc12 [QUININE]
- Log2 (fold) of luciferase activity relative to DMSO controls: −0.201
- Fold (luciferase activity relative to DMSO controls): 0.870 fold

SMILES: CC[N+](CC)(CC)CC(=O)Nc1c(C)cccc1C [QX-314]
- Log2 (fold) of luciferase activity relative to DMSO controls: 0.146
- Fold (luciferase activity relative to DMSO controls): 1.107 fold

SMILES: CC1=C(/C=C/C(C)=C/C=C/C(C)=C/C(=O)O)C(C)(C)CCC1 [RETINOIC ACID, ALL TRANS]
- Log2 (fold) of luciferase activity relative to DMSO controls: −0.162
- Fold (luciferase activity relative to DMSO controls): 0.894 fold

SMILES: CCCCCC(O)c1cccc(OCc2ccc3ccccc3n2)c1 (centres unmarked) [REV-5901]
- Log2 (fold) (luciferase activity, log2 of the fold difference relative to DMSO controls): −0.282
- Fold (luciferase activity, fold difference relative to DMSO controls): 0.822

SMILES: N#C/C(=C\c1cc(Cl)cc(Cl)c1)c1cccnc1 [RG-14620]
- Log2 (fold) (luciferase activity, log2 of the fold difference relative to DMSO controls): −0.483
- Fold (luciferase activity, fold difference relative to DMSO controls): 0.715

SMILES: O=C(NCCCCCCNC(=O)ON=C1CCCCC1)ON=C1CCCCC1 [RHC-80267]
- Log2 (fold) (luciferase activity, log2 of the fold difference relative to DMSO controls): −0.279
- Fold (luciferase activity, fold difference relative to DMSO controls): 0.824

SMILES: CCCCCCCCCCCCCCCC(=O)C1=C(O)C(CO)OC1=O (centres unmarked) [RK-682]
- Log2 (fold) (luciferase activity, log2 of the fold difference relative to DMSO controls): −0.492
- Fold (luciferase activity, fold difference relative to DMSO controls): 0.711
